Measured values taken from PMC4769301, “Affinity Enhancement by Ligand Clustering Effect Inspired by Peptide Dendrimers−Shank PDZ Proteins Interactions” (PLoS ONE, 2016).
Values joined by “and” are separate entries in the source; they are usually repeats but may differ in a detail not shown here. Equal values may be shown once. Read-outs that look alike come from different tables or passages of the source. Numbered stars: 1 amine (or outer) side, 2 acyl side, 3 side chain; on linkers, the order of the positions; unused ones are H or OH. Bridge positions count the residues as written; N and C are the ends. Ends that are not written are not given here. Peptide text beside a SMILES is read from it. I, II: the chains in the order shown. X1 = O=C1CC([*:1])C(=O)N1CCN(CCN1C(=O)CC([*:2])C1=O)CCN1C(=O)CC([*:3])C1=O; X3 = O=C1CC([*:1])C(=O)N1CCOCCOCCOCCN1C(=O)CC([*:2])C1=O; X2 = O=C1CC([*:1])C(=O)N1CCOCCOCCN1C(=O)CC([*:2])C1=O

B1: Shank1 PDZ 653-765 (protein)
chain: SGSDYIIKEKTVLLQKKDSEGFGFVLRGAKAQTPIEEFTPTPAFPALQYLESVDEGGVAWRAGLRMGDFLIEVNGQNVVKVGHRQVVNMIRQGGNTLMVKVVMVTRHPDMDEA
B2: Shank3 PDZ 533-665 (protein)
chain: DTRHETREDRTKRLFRHYTVGSYDSLTSHSDYVIDDKVAILQKRDHEGFGFVLRGAKAETPIEEFTPTPAFPALQYLESVDVEGVAWRAGLRTGDFLIEVNGVNVVKVGHKQVVGLIRQGGNRLVMKVVSVTR

Tests used:
[1] = target: T1, Shank1 PDZ (Rattus norvegicus, UniProt Q9WV48); assay: Isothermal titration calorimetry, Shank1 PDZ; assay type: binding
T1 construct: His tag; made in house; host or cells: E. coli BL21
T1 sequence (Q9WV48 653-765): B1 chain
Text: (§1) Gene encoding the Shank1 PDZ (Swiss-Prot accession number Q9WV48.1, residues 653–765) was synthesized by GenScript Inc., and digested by Nde I and Xho I restriction enzymes and ligated into pET28a vector to generate pET28-Shank1 PDZ plasmid (S1A Fig). The plasmid pET.M.3C Shank3 PDZ (Swiss-Prot accession number Q4ACU6.3, residues 533–665) was a gift from Prof. Mingjie Zhang’s group from Division of Life Science, Hong Kong University of Science and Technology. The recombinant plasmid pET28-Shank1 PDZ and pET.M.3C Shank3 PDZ were transformed into E. coli BL21 cells for protein production. Mono-clones were pre-cultured overnight at 37°C, and then cultures were added to new media, shaken at 37 °C until optical density at 600 nm reached 0.6–0.8. Then isopropyl β-D-1-thiogalactopyranoside was added at final concentration 1 mM to induce protein overexpression, the culture was shaken overnight at 16°C.
(§2) Prior to use, lyophilized peptides were dissolved in the storage buffer (50 mM sodium phosphate, 200 mM NaCl, pH 7.4). All the peptides and protein solution were filtered through 0.1 μm membrane, and their concentrations were adjusted according to experiments requirement: except for the binding pair p1 ligand and Shank1 PDZ, the proteins concentration were between 30–40 μM, ligands concentration were between 300–400 μM; and for the binding pair p1 ligand and Shank1 PDZ, the affinity was very low so that protein concentration was adjusted to about 315 μM and p1 ligand concentration was adjusted to about 3.14 mM to get accuracy affinity data. All the solutions were extensively degassed just before titration. Titrations were performed at 25°C by MicroCal VP-ITC (Malvern), and data were analyzed by Origin software (Origin Lab) and fitted to single-binding-site model.

[2] = target: T1, Shank1 PDZ; assay: Surface plasmon resonance, immobilized Shank1 PDZ; assay type: binding; conditions: for kon: pH 7.4, read-out: association rate constant kon; for koff: pH 7.4, read-out: dissociation rate constant koff
Description: Prior to use, lyophilized peptides were dissolved in the storage buffer (50 mM sodium phosphate, 200 mM NaCl, pH 7.4) at high concentration and diluted to required concentration using running buffer (HBS-EP: 0.01 M HEPES pH 7.4, 0.15 M NaCl, 3 mM EDTA, 0.005% v/v Surfactant P20). All the peptides and protein solution were filtered through 0.1 μm membrane, and their concentrations were adjusted according to experiments requirement: for ligand p1, concentration series of 10.8 μM, 21.6 μM, 43.2 μM, 86.5μM, 173μM, 346μM were used; for ligand p2, concentrations series of 10 μM, 20 μM, 40 μM, 80 μM, 160 μM, 320 μM were used; for ligand p3, concentrations series of 2.63 μM, 5.27 μM, 10.5 μM, 21.1 μM, 42.1 μM, 84.3 μM were used. All sample solution and running buffer were extensively degassed just before titration. Shank1 PDZ protein was coupled on CM5 chip using EDC/NHS method.
Running were performed at 25°C on Biacore 3000 (GE), and data were processed by BIAevaluation software and fitted to steady state affinity model and 1:1 Langmuir binding model. 1:1 Langmuir binding model which show kinetics data was analyzed by BIAevaluation software. Steady state affinity model which show affinity data was analyzed by Origin software using the following equation: Req=KACRmax/1+KACn

[3] = target: T1, Shank1 PDZ; assay: Native mass spectrometry, Shank1 PDZ; assay type: binding; conditions: for complexes with higher stoichiometry such as 2:1 or 3:1: native MS, protein/peptide ratio 4:1, protein in excess, within the detection limit of native MS
Description: Prior to the experiment, the protein solution was extensively dialyzed at 4°C against 150mM ammonium acetate. During the dialysis, Shank1 PDZ yielded no precipitate, while Shank3 PDZ was largely precipitated out. Increasing the concentration of ammonium acetate to 200–500 mM couldn’t alleviate precipitation. Lyophilized peptides were also dissolved in the 150 mM ammonium acetate. All the peptides and protein solution were filtered through 0.1 μm membrane, and their concentrations were adjusted according to experiments requirement. The protein and peptide were mixed as the corresponding ratio and incubated at room temperature for 20 minutes.
Positive ion electrospray ionization mass spectra were acquired on a Micromass Q-Tof micro mass spectrometer (Waters), with a nanoESI source using EconoTips. The capillary voltage was adjusted in the range of 1.2–2.2 kV until optimal ion signals were obtained. The cone voltage of the Q-TOF was set at 20 V, and the ion source temperature was set at 40°C.

[4] = target: T2, Shank3 PDZ (Mus musculus, UniProt Q4ACU6); assay: Isothermal titration calorimetry, Shank3 PDZ; assay type: binding
T2 construct: His tag; made in house; host or cells: E. coli BL21
T2 sequence (Q4ACU6 533-665): B2 chain
Text: as §1, §2

[5] = target: T3, p1 (monomeric βPIX peptide) (Rattus norvegicus); assay: ITC
T3 chain: CGSSGDPAWDETNL

[6] = target: T4, p3 (trimeric peptide, TMEA) (also: trimer via Cys-TMEA linker); assay: ITC
T4 chain: Ac-CGSSGDPAWDETNL

[7] = target: T5, dimeric peptide BM(PEG)3 (also: dimer via Cys-BM(PEG)3 linker); assay: ITC
T5 chain: Ac-CGSSGDPAWDETNL

[8] = target: T6, p2 (dimeric peptide, BM(PEG)2) (also: dimer via Cys-BM(PEG)2 linker); assay: ITC
T6 chain: Ac-CGSSGDPAWDETNL

[9] = target: T4, p3 (trimeric peptide, TMEA); assay: SPR kinetics
[10] = target: T6, p2 (dimeric peptide, BM(PEG)2); assay: SPR kinetics
[11] = target: T4, p3 (trimeric peptide, TMEA); assay: ITC (diluted ligand)
[12] = target: T6, p2 (dimeric peptide, BM(PEG)2); assay: ITC (diluted ligand)
[13] = target: T3, p1 (monomeric βPIX peptide); assay: native MS
[14] = target: T4, p3 (trimeric peptide, TMEA); assay: native MS
[15] = target: T6, p2 (dimeric peptide, BM(PEG)2); assay: native MS
[16] = target: T3, p1 (monomeric βPIX peptide); assay: SPR steady state
[17] = target: T4, p3 (trimeric peptide, TMEA); assay: SPR steady state
[18] = target: T6, p2 (dimeric peptide, BM(PEG)2); assay: SPR steady state

| Molecule | Kd [1] | kon [2] [M⁻¹ s⁻¹] | koff [2] [s⁻¹] | Kd [3] [µM] | complexes with higher stoichiometry such as 2:1 or 3:1 [3] | Kd [4] [µM] | Kd [5] [µM] | Kd [6] [µM] | Kd [8] [µM] | further results |
| --- | --- | --- | --- | --- | --- | --- | --- | --- | --- | --- |
| CC(=O)N[C@@H](CSC1CC(=O)N(CCOCCOCCOCCN2C(=O)CC(SC[C@H](NC(C)=O)C(=O)NCC(=O)N[C@@H](CO)C(=O)N[C@@H](CO)C(=O)NCC(=O)N[C@@H](CC(=O)O)C(=O)N3CCC[C@H]3C(=O)N[C@@H](C)C(=O)N[C@@H](Cc3c[nH]c4ccccc34)C(=O)N[C@@H](CC(=O)O)C(=O)N[C@@H](CCC(=O)O)C(=O)N[C@H](C(=O)N[C@@H](CC(N)=O)C(=O)N[C@@H](CC(C)C)C(=O)O)[C@@H](C)O)C2=O)C1=O)C(=O)NCC(=O)N[C@@H](CO)C(=O)N[C@@H](CO)C(=O)NCC(=O)N[C@@H](CC(=O)O)C(=O)N1CCC[C@H]1C(=O)N[C@@H](C)C(=O)N[C@@H](Cc1c[nH]c2ccccc12)C(=O)N[C@@H](CC(=O)O)C(=O)N[C@@H](CCC(=O)O)C(=O)N[C@H](C(=O)N[C@@H](CC(N)=O)C(=O)N[C@@H](CC(C)C)C(=O)O)[C@@H](C)O (some centres unmarked) [dimeric peptide BM(PEG)3] (I: Ac-CGSSGDPAWDETNL-OH / II: Ac-CGSSGDPAWDETNL-OH; linker I:1-II:1 via X3) | 13.7 ± 0.7 µM | – | – | – | – | – | – | – | – | – |
| CC(=O)N[C@@H](CSC1CC(=O)N(CCOCCOCCN2C(=O)CC(SC[C@H](NC(C)=O)C(=O)NCC(=O)N[C@@H](CO)C(=O)N[C@@H](CO)C(=O)NCC(=O)N[C@@H](CC(=O)O)C(=O)N3CCC[C@H]3C(=O)N[C@@H](C)C(=O)N[C@@H](Cc3c[nH]c4ccccc34)C(=O)N[C@@H](CC(=O)O)C(=O)N[C@@H](CCC(=O)O)C(=O)N[C@H](C(=O)N[C@@H](CC(N)=O)C(=O)N[C@@H](CC(C)C)C(=O)O)[C@@H](C)O)C2=O)C1=O)C(=O)NCC(=O)N[C@@H](CO)C(=O)N[C@@H](CO)C(=O)NCC(=O)N[C@@H](CC(=O)O)C(=O)N1CCC[C@H]1C(=O)N[C@@H](C)C(=O)N[C@@H](Cc1c[nH]c2ccccc12)C(=O)N[C@@H](CC(=O)O)C(=O)N[C@@H](CCC(=O)O)C(=O)N[C@H](C(=O)N[C@@H](CC(N)=O)C(=O)N[C@@H](CC(C)C)C(=O)O)[C@@H](C)O (some centres unmarked) [p2] (I: Ac-CGSSGDPAWDETNL-OH / II: Ac-CGSSGDPAWDETNL-OH; linker I:1-II:1 via X2) | 16.6 µM and 18 µM | 65200 | 1.12 | ~5.3 | not observed | 5.9 ± 0.4 | – | – | – | – |
| GSGSGDPAWDETNL-OH [p1] | – | – | – | – | – | – | – | – | – | Kd ([2]; Biacore 3000, 25°C, HBS-EP pH 7.4, Shank1 PDZ coupled on CM5 chip, steady state affinity model, n = 1, read-out: dissociation constant (SPR, steady state affinity model)): 45 ± 6 µM; Kd ([3]; rough estimation from peak intensities, 1:1 mixture, 150 mM ammonium acetate, 65 μM each, gas-phase measurement, read-out: dissociation constant estimated from native MS peak intensity): ~13 µM; Kd ([4]; MicroCal VP-ITC, 25°C, 50 mM sodium phosphate, 200 mM NaCl, pH 7.4, single-binding-site model, [p1] = 406 μM/[Shank3 PDZ] = 40 μM, [p2] = 400 μM/30 μM, [p3] = 315 μM/34 μM, read-out: Kd (ITC)): 24 ± 2 µM; Kd ([1]; MicroCal VP-ITC, 25°C, 50 mM sodium phosphate, 200 mM NaCl, pH 7.4, single-binding-site model, [p1] = 4 mM/[Shank1 PDZ] = 400 μM, [p2] = 326 μM/43 μM, [p3] = 354 μM/35 μM (Fig 3A), read-out: dissociation constant Kd (ITC)): 41 ± 1 µM |
| I: Ac-CGSSGDPAWDETNL-OH / II: Ac-CGSSGDPAWDETNL-OH / III: Ac-CGSSGDPAWDETNL-OH (linker I:1-II:1-III:1 via X1) [p3] | 8.1 µM and 6.5 µM | 78900 | 0.353 | ~4.5 | not observed | 1.9 ± 0.1 | – | – | – | difference in kon ([2]; SPR, 1:1 Langmuir binding model, ligand p3 compared with ligand p2): about 1.2 fold |
| B1 | – | – | – | – | – | – | 41 | 8.1 | 16.6 | Kd [7]: 13.7 µM; Kd [9]: 4.48 µM; Kd [10]: 17.1 µM; Kd [11]: 6.5 µM; Kd [12]: 18 µM; Kd [13]: ~13 µM; Kd [14]: ~4.5 µM; Kd [15]: ~5.3 µM; Kd [16]: 45 µM; Kd [17]: 6 µM; Kd [18]: 19 µM |
| B2 | – | – | – | – | – | – | 24 | 1.9 | 5.9 | – |
